Measurements as given in patent publication US7919624B2, “VR1 vanilloid receptor antagonists with a iononic substructure” (Pharmeste S.R.L., priority 2006, dated 2011).

Key:
[1] = molecular target: T1, TRPV1 expressed in rat spinal cord (Rattus norvegicus, UniProt O35433); test: Radioligand binding assay, [3H]-RTX, rat spinal cord membranes; details: 37° C. 60 min, range in brackets; for Ki: [3H]RTX 0.4 nM, read-out: Ki value, competition binding of [3H]-RTX
T1 construct: the spinal cord was removed and disrupted using a Polytron tissue homogenizer; from tissue; host or cells: spinal cord membranes of male Sprague-Dawley rats
Procedure: Radioligand Binding Assay
Male Sprague-Dawley rats with body weight between 250 and 350 g at the time for testing were used. For binding assays rats were sacrificed by decapitation under anesthesia and the spinal cord was removed and disrupted using a Polytron tissue homogenizer in ice cold buffer containing 5 mM KCl, 5.8 mM NaCl, 0.75 mM CaCl2, 2 mM MgCl2, 320 mM sucrose, 10 mM Hepes, pH 8.6.^5 The homogenized tissue was centrifuged at 1000×g for 10 min at 4° C. and the supernatant was centrifuged again at 35000×g for 30 min at 4° C. (Beckman Avanti J25). The pellet was resuspended in the same buffer described above and used in binding experiments. In saturation experiments, 150 μg protein/sample from membrane suspensions were incubated with [^3H]-resiniferatoxin ([^3H]-RTX) (0.003-3 nM) in the assay buffer containing 0.25 mg/ml fatty acid-free bovine serum albumin at 37° C. for 60 min. In competition experiments, the membranes were incubated at 37° C. for 60 min with [^3H]RTX (0.4 nM) and increasing concentrations of the examined compounds in the range from 0.1 nM to 3 μM. Non-specific binding was defined in the presence of 1 μM RTX. After incubation, the reaction mixture was cooled at 0° C. and incubated with bovine α1-acid glycoprotein (200 μg per tube) for 15 min to reduce non-specific RTX binding. Membrane-bound RTX was separated from free RTX through centrifugation of the samples at 18500×g for 15 min. The tip of the microcentrifuge tube containing the pellet was cut off and radioactivity was determined by scintillation counting (Packard 2500 TR). Protein concentration was determined according to a Bio-Rad method with bovine serum albumin as reference standard (Bradford, 1976). Saturation and competition studies were analysed with the program Ligand.^6

[2] = molecular target: T2, TRPV1 expressing neurons (rat trigeminal neurons) (Rattus norvegicus, UniProt O35433); test: Ca2+ fluorescence measurements in cultured rat trigeminal ganglia; assay type: cell-based; details: 0.1 μM capsaicin, mean and 95% fiducial limits, read-out: IC50 inhibiting capsaicin-evoked [Ca2+]i mobilization
T2 construct: Two-days old Newborn rats were terminally anaesthetized and decapitated; Trigeminal ganglia were removed; endogenous in cells; host or cells: primary cultured trigeminal ganglion neurons from newborn Sprague-Dawley rats
Procedure: Ca^2+ Fluorescence Measurements in Cultured rat Trigeminal Ganglia
Two-days old Newborn rats were terminally anaesthetized and decapitated. Trigeminal ganglia were removed and rapidly placed in a cold phosphate buffered solution (PBS) before being transferred to collagenase/dispase (1 mg/ml dissolved in Ca^2+- Mg^2+-free PBS) for 35 min at 37° C.^7 After the enzymatic treatment the ganglia were rinsed three times with Ca^2+- Mg^2+-free PBS and then placed in 2 ml of cold DMEM supplemented with 10% fetal bovine serum (FBS, heat inactivated), 2 mM L-glutamine, 100 μ/ml penicillin and 100 μg/ml streptomycin. The ganglia were dissociated into single cells by several passages through a series of syringe needles (23G down to 25G). Finally, the medium and the ganglia cells were sieved through a 40 μm filter to remove debris and topped up with 8 ml of DMEM medium and centrifuged (200×g for 5 min). The final cell pellet was re-suspended in DMEM medium [supplemented with 100 ng/ml mouse Nerve Growth Factor (mouse-NGF-7S) and cytosine-β-D-arabinofuranoside free base (ARA-C) 2.5 μM]. Cells were plated on poly-L-lysine-(8.3 μM) and laminin-(5 μM) coated 25 mm glass cover slips and kept for 5 to 8 days at 37° C. in a humidified incubator gassed with 5% CO2 and air. Plated neurons were loaded with Fura-2-AM-ester (3 μM) in Ca^2+ buffer solution of the following composition (mM): CaCl2 1.4, KCl 5.4, MgSO4 0.4, NaCl 135, D-glucose 5, HEPES 10 with BSA (0.1%), at pH 7.4, for 40 min at 37° C. The plated neurons were then washed twice with the Ca^2+ buffer solution and transferred to a chamber on the stage of Nikon eclipse TE300 microscope. Fura-2-AM-ester was excited at […] to indicate relative [Ca^2+]i changes by the F340/F380 ratio recorded with a dynamic image analysis system (Laboratory Automation 2.0, RCS, Florence, Italy). After transferring the plated neurons to the chamber, they were allowed (at least 10 min) to attain a stable fluorescence before beginning the experiment. A calibration curve was performed using buffer containing Fura-2-AM-ester and determinant concentrations of free Ca^2+.
The results are expressed as mean and 95% fiducial limits.

[3] = system: capsaicin-induced tactile allodynia; test: Capsaicin-induced secondary allodynia in rat; assay type: in vivo; details: 10 mg/kg orally 2 hours prior to capsaicin (20 nmols/50 μl/paw), 90 min after capsaicin challenge
Procedure: Capsaicin-induced Secondary Allodynia in Rat
Capsaicin (20 nmols/50 μl/paw) was injected in the plantar surface of the glabrous skin of the right paw of rats anesthetized with diethyl ether (Chaplan et al., 1994). Compound Id was orally administered (10 mg/kg) 2 hours prior to capsaicin injection. Tactile allodynia was evaluated 90 min after capsaicin challenge.

T2 sequence (O35433 whole entry): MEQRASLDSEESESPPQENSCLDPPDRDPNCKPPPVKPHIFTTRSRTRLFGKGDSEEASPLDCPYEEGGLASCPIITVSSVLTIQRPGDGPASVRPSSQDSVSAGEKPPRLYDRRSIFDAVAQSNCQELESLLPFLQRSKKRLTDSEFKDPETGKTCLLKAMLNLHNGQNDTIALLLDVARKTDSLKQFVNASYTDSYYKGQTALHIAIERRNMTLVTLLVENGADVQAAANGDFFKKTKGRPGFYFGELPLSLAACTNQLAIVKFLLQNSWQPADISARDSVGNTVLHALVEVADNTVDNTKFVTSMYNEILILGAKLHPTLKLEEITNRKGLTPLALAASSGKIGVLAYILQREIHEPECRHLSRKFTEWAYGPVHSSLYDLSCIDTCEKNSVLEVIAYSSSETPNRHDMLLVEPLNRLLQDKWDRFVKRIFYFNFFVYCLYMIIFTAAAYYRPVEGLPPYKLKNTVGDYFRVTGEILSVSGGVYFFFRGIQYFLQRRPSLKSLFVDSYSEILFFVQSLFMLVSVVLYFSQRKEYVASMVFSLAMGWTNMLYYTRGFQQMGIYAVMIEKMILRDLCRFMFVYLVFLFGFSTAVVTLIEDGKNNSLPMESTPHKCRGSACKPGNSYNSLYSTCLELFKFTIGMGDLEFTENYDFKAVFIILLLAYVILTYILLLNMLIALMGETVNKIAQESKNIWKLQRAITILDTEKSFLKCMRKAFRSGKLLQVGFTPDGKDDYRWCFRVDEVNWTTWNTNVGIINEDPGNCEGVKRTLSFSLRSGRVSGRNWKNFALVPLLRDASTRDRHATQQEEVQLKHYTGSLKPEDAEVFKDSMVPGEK
T1 sequence (O35433 whole entry): as above

Row | Structure (SMILES) | Ki [1] | IC50 [2] | Kd ([1]; [3H]-RTX 0.003-3 nM, read-out: KD value, saturation curve of [3H]-RTX) | preventive effect against the pro-allodinic effect of capsaicin [3]
1 | COC1CCC(C)(C)C(/C=C/C(=O)Nc2cccc3cnccc23)=C1C (stereo not shown) [Ib, (2E)-N-(isoquinolin-5-yl)-3-(3-methoxy-2,6,6-trimethylcyclohex-1-enyl)acrylamide] | 26.2 nM | 28.4 nM |  | 
2 | C=C(C)[C@]12C[C@@H](C)[C@@]34O[C@](Cc5ccccc5)(O[C@@H]1[C@@H]3C=C(COC(=O)Cc1ccc(O)c(OC)c1)C[C@]1(O)C(=O)C(C)=C[C@@H]41)O2 [[^3H]-RTX, [^3H]-resiniferatoxin, reference compound] |  |  | 0.21 nM | 
3 | CC1=C(/C=C/C(=O)Nc2cccc3cnccc23)C(C)(C)CCC1Oc1ccc(F)cc1 (stereo not shown) [Ie, (2E)-3-(3-(4-fluorophenoxy)-2,6,6-trimethylcyclohex-1-enyl)-N-(isoquinolin-5-yl)acrylamide] | 14.8 nM | 5.25 nM |  | 
4 | CC1=C(/C=C/C(=O)Nc2cccc3cnccc23)C(C)(C)CCC1 [Ia, (2E)-N-(isoquinolin-5-yl)-3-(2,6,6-trimethylcyclohex-1-enyl)acrylamide] | 66 nM | 44 nM |  | 
5 | CC1=C(/C=C/C(=O)Nc2cccc3cnccc23)C(C)(C)CCC1Oc1ccc(Cl)cc1 (stereo not shown) [Compound Id, (2E)-3-(3-(4-chlorophenoxy)-2,6,6-trimethylcyclohex-1-enyl)-N-(isoquinolin-5-yl)acrylamide] | 27 nM | 18.2 nM |  | 54%

Continued by falling Ki [1], values first:

Row | Ki [1] | IC50 [2] | Structure (SMILES) | Kd ([1]; [3H]-RTX 0.003-3 nM, read-out: KD value, saturation curve of [3H]-RTX) | preventive effect against the pro-allodinic effect of capsaicin [3]
6 | 10.3 nM | 0.65 nM | CC1=C(/C=C/C(=O)Nc2cccc3cnccc23)C(C)(C)CCC1Oc1ccc(F)c(F)c1 (stereo not shown) [Ig, (2E)-3-(3-(3,4-difluorophenoxy)-2,6,6-trimethylcyclohex-1-enyl)-N-(isoquinolin-5-yl)acrylamide] |  | 
7 | 8.14 nM | 0.38 nM | CC1=C(/C=C/C(=O)Nc2cccc3cnccc23)C(C)(C)CCC1Oc1cccc(F)c1 (stereo not shown) [If, (2E)-3-(3-(3-fluorophenoxy)-2,6,6-trimethylcyclohex-1-enyl)-N-(isoquinolin-5-yl)acrylamide] |  | 
8 | 4.93 nM | 2.12 nM | CC1=C(/C=C/C(=O)Nc2cccc3cnccc23)C(C)(C)CCC1Oc1ccccc1 (stereo not shown) [Ic, (2E)-N-(isoquinolin-5-yl)-3-(2,6,6-trimethyl-3-phenoxycyclohex-1-enyl)acrylamide] |  | 
